The source made the active and inactive calls. No rule for the calls is given here.
Test system: StAR promoter luciferase reporter cells, luminescence inhibition
Assay: StAR promoter reporter inhibition counter-screen, late-stage follow-up, counter-screen for LRH-1 inverse agonist project, cell-based, luminescence, dose response (AID 651975)

Row | Structure (SMILES) | IC50
1 | COC(=O)c1ccc(CNC(=O)COC(=O)c2cc(Cl)nc(Cl)c2)cc1 | > 35.9 µM (inactive)
2 | COC(=O)c1ccc(NC(=O)CSc2nncn2-c2cccnc2)cc1 | > 35.9 µM (inactive)
3 | CC(=O)c1ccc(OC(C)C(=O)OCC(=O)NCCc2ccccc2)cc1 (centres undefined) | > 35.9 µM (inactive)
4 | COc1ccc(NS(=O)(=O)c2ccc(OCC(=O)N3CCN(C)CC3)cc2)cc1Cl | > 35.9 µM (inactive)
